Test results published in US8445676B2, “Pyrrolotriazine kinase inhibitors” (Bristol-Myers Squibb Company, priority 2008, dated 2013).

Target: JAK2 (Homo sapiens, UniProt O60674)
Test: JAK2 Tyrosine Kinase Assay
Assay type: biochemical
Conditions: list of named compounds; read-out: IC50 in the JAK2 assay
Description: JAK2 Tyrosine Kinase Assay
The assays were performed in V-bottom 384-well plates. […] The reaction was initiated by the combination of JAK2 with substrates and test compounds. The reaction was incubated at room temperature for 60 min. and terminated by adding 45 μl of 35 mM EDTA to each sample. The reaction mixture was analyzed on the Caliper LabChip 3000 by electrophoretic separation of the fluorescent substrate and phosphorylated product. […] Compounds were dissolved at 10 mM in dimethylsulfoxide (DMSO) and evaluated at eleven concentrations, each in duplicate. IC50 values were derived by non-linear regression analysis

Chain of JAK2 (O60674 whole entry): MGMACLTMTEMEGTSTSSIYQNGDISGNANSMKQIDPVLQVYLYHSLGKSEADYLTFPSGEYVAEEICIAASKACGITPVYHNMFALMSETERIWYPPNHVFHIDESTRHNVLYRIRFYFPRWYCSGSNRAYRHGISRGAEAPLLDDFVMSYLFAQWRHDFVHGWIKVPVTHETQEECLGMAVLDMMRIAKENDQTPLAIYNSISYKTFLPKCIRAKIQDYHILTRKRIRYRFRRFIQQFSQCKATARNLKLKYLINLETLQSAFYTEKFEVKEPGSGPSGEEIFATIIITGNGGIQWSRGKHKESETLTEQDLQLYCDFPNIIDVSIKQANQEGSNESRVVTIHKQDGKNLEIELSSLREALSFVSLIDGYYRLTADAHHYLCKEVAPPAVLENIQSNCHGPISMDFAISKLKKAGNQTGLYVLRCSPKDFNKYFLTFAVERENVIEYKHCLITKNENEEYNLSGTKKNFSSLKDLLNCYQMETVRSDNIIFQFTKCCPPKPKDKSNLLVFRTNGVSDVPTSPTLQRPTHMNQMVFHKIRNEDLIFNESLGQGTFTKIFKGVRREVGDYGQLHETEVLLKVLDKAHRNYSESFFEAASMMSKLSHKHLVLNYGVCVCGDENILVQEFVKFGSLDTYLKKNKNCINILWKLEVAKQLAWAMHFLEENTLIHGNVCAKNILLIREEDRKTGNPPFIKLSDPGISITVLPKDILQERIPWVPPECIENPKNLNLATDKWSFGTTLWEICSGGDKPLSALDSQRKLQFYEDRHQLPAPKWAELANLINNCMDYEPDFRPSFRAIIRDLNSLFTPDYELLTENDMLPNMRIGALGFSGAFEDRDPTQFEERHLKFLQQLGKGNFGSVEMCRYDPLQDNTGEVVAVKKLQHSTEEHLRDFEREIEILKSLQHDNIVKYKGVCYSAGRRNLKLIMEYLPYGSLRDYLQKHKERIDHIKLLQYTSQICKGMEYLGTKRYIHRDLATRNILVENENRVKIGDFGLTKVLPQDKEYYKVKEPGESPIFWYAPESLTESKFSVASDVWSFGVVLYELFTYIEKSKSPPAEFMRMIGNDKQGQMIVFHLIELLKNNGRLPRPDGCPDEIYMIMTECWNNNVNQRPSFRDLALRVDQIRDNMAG

Compound | IC50 [nM]
CCCCC(=O)N1CCN(c2nc(Nc3cc(C)[nH]n3)c3cccn3n2)CC1 [N-(5-methyl-1H-pyrazol-3-yl)-2-(4-pentanoyl-1-piperazinyl)pyrrolo[2,1-f][1,2,4]triazin-4-amine] | ≤ 5
Cc1cc(Nc2nc(N3CCN(C(=O)c4ccccc4Oc4ccccc4)CC3)nn3cccc23)n[nH]1 [N-(5-methyl-1H-pyrazol-3-yl)-2-(4-(2-phenoxybenzoyl)-1-piperazinyl)pyrrolo[2,1-f][1,2,4]triazin-4-amine] | ≤ 5
Cc1cc(Nc2nc(N3CCN(C(=O)c4ccccc4C#N)CC3)nn3cccc23)n[nH]1 [2-((4-(4-((5-methyl-1H-pyrazol-3-yl)amino)pyrrolo[2,1-f][1,2,4]triazin-2-yl)-1-piperazinyl)carbonyl)benzonitrile] | ≤ 5
Cc1cc(Nc2nc(N3CCN(C(=O)Cc4ccc(Cl)cc4F)CC3)nn3cccc23)n[nH]1 [2-(4-((4-chloro-2-fluorophenyl)acetyl)-1-piperazinyl)-N-(5-methyl-1H-pyrazol-3-yl)pyrrolo[2,1-f][1,2,4]triazin-4-amine] | ≤ 5
Cc1cc(Nc2nc(N3CCN(C(=O)C(O)c4ccc(F)cc4)CC3)nn3cccc23)n[nH]1 (centres unmarked) [1-(4-fluorophenyl)-2-(4-(4-((5-methyl-1H-pyrazol-3-yl)amino)pyrrolo[2,1-f][1,2,4]triazin-2-yl)-1-piperazinyl)-2-oxoethanol] | ≤ 5
Cc1cc(Nc2nc(N3CCN(C(=O)[C@H](O)c4ccccc4)CC3)nn3cccc23)n[nH]1 [(1R)-2-(4-(4-((5-methyl-1H-pyrazol-3-yl)amino)pyrrolo[2,1-f][1,2,4]triazin-2-yl)-1-piperazinyl)-2-oxo-1-phenylethanol] | ≤ 5

Further lines, results first:

IC50 [nM] | Compound
≤ 5 | Cc1cc(Nc2nc(N3CCN(C(=O)c4cccn4C)CC3)nn3cccc23)n[nH]1 [N-(5-methyl-1H-pyrazol-3-yl)-2-(4-((1-methyl-1H-pyrrol-2-yl)carbonyl)-1-piperazinyl)pyrrolo[2,1-f][1,2,4]triazin-4-amine]
≤ 5 | Cc1cc(Nc2nc(N3CCN(C(=O)C4(c5ccccc5)CC4)CC3)nn3cccc23)n[nH]1 [N-(5-methyl-1H-pyrazol-3-yl)-2-(4-((1-phenylcyclopropyl)carbonyl)-1-piperazinyl)pyrrolo[2,1-f][1,2,4]triazin-4-amine]
≤ 5 | Cc1cc(Nc2nc(N3CCN(C(=O)c4ccccc4[N+](=O)[O-])CC3)nn3cccc23)n[nH]1 [N-(5-methyl-1H-pyrazol-3-yl)-2-(4-(2-nitrobenzoyl)-1-piperazinyl)pyrrolo[2,1-f][1,2,4]triazin-4-amine]
≤ 5 | Cc1cc(Nc2nc(N3CCN(C(=O)c4c(F)cccc4C(F)(F)F)CC3)nn3cccc23)n[nH]1 [2-(4-(2-fluoro-6-(trifluoromethyl)benzoyl)-1-piperazinyl)-N-(5-methyl-1H-pyrazol-3-yl)pyrrolo[2,1-f][1,2,4]triazin-4-amine]
≤ 5 | Cc1cc(Nc2nc(N3CCN(C(=O)c4cccc(C#N)c4)CC3)nn3cccc23)n[nH]1 [3-((4-(4-((5-methyl-1H-pyrazol-3-yl)amino)pyrrolo[2,1-f][1,2,4]triazin-2-yl)-1-piperazinyl)carbonyl)benzonitrile]
≤ 5 | Cc1csc(C(=O)N2CCN(c3nc(Nc4cc(C)[nH]n4)c4cccn4n3)CC2)c1 [N-(5-methyl-1H-pyrazol-3-yl)-2-(4-((4-methyl-2-thienyl)carbonyl)-1-piperazinyl)pyrrolo[2,1-f][1,2,4]triazin-4-amine]
≤ 5 | CC(=O)Nc1ccc(C(=O)N2CCN(c3nc(Nc4cc(C)[nH]n4)c4cccn4n3)CC2)cc1 [N-(4-((4-(4-((5-methyl-1H-pyrazol-3-yl)amino)pyrrolo[2,1-f][1,2,4]triazin-2-yl)-1-piperazinyl)carbonyl)phenyl)acetamide]
≤ 5 | Cc1cc(Nc2nc(N3CCN(C(=O)C(O)c4ccccc4F)CC3)nn3cccc23)n[nH]1 (centres unmarked) [1-(2-fluorophenyl)-2-(4-(4-((5-methyl-1H-pyrazol-3-yl)amino)pyrrolo[2,1-f][1,2,4]triazin-2-yl)-1-piperazinyl)-2-oxoethanol]
